Test results from PubChem BioAssay AID651630 (Sanford-Burnham Center for Chemical Genomics, 2012).
Active and inactive are the calls of the source.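 The calls were made as follows: active = lipid-stain IC50 at or below a set limit, with nuclear-stain toxicity IC50 at least five times higher; inactive = the rest.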

Legend:
DAPI = test: triacylglycerol accumulation inhibitor potency, dose response, cell-based, panel, Nile Red and DAPI fluorescence, H9c2 (AID 651630); details: H9c2 cells, DAPI nuclear fluorescence (cytotoxicity counter-readout), oleic acid;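 also: cells exposed to compound overnight before fixation and staining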
TAG = test: as above; details: H9c2 cells, Nile Red TAG fluorescence, oleic acid

Structure (SMILES)	IC50 cytotoxicity (DAPI nuclear signal decrease) (DAPI; mean of runs)	IC50 cytotoxicity (DAPI nuclear signal decrease) (DAPI; run 1) [µM]	IC50 cytotoxicity (DAPI nuclear signal decrease) (DAPI; run 2) [µM]	IC50 (TAG; mean of runs)	IC50 (TAG; run 1) [µM]	IC50 (TAG; run 2) [µM]
CCCOc1ccc(F)cc1-c1cc(C(=O)NCc2cc(OC)cc(OC)c2)[nH]n1	> 25 µM (inactive)	> 25	> 25	10.1 µM	10.8	9.39
CCOc1ccc(C(=O)Nc2nnc(NC(=S)Nc3ccccc3)s2)cc1	> 25 µM (inactive)	> 25	> 25	–	> 25	23
Cc1ccc(Nc2nc(OC(C(F)(F)F)C(F)(F)F)nc(N3CCOCC3)n2)cc1	–	22.3	> 25	7.62 µM	7.92	7.32
O=C(Nc1ccncc1)C1CCCN(S(=O)(=O)c2cccc3cccnc23)C1 (stereo not given)	> 25 µM (inactive)	> 25	> 25	> 25 µM (inactive)	> 25	> 25
O=C1N=C(N2CCOCC2)S/C1=C/c1ccc(-c2ccc(F)cc2)o1	> 25 µM (inactive)	> 25	> 25	19.7 µM (inactive)	18.6	20.7
CCOC(=O)C1=C(C)N(C[C@@H]2CC[C@@H](Cc3ccc(-c4ccccc4)cc3)O2)C(=O)NC1c1cccc2ccccc12 (stereo not given in full)	> 25 µM (inactive)	> 25	> 25	13.6 µM	14	13.2
CCOC(=O)c1sc2nc(CSc3ccccc3)nc(NCCN(C)C)c2c1C	> 25 µM (inactive)	> 25	> 25	13.7 µM	12.4	14.9
O=C(Nc1ccc(-c2csc(Nc3cccc(C(F)(F)F)c3)n2)cc1)c1cc([N+](=O)[O-])cc(C(F)(F)F)c1	> 25 µM (inactive)	> 25	> 25	10.9 µM	10.8	11.1
CCCCCc1cc(=O)oc2c(C(CCN3CCN(c4ccccc4)CC3)c3ccc(N(C)C)cc3)c(OC)cc(OC)c12 (stereo not given)	> 25 µM (inactive)	> 25	> 25	12.2 µM	11.2	13.2
Cc1ccc(C2C(C=Nc3c(C)n(C)n(-c4ccccc4)c3=O)=C(c3ccccc3)Oc3ccccc32)cc1 (stereo not given)	> 25 µM (inactive)	> 25	> 25	7.41 µM	6.56	8.27
OC1CC2CCC(C1)N2CCCN1c2ccccc2Sc2ccc(Cl)cc21 (stereo not given)	–	19.4	> 25	–	10.3	> 25
CCCCCC(=C/c1ccccc1)/C=N/Nc1ccc(S(=O)(=O)N2CCOCC2)cc1[N+](=O)[O-]	–	> 25	> 25	2.9 µM	1.96	3.83
Oc1ccc(C[C@H]2CNC(=S)N2CC2CCCN2C[C@H](Cc2ccc(O)cc2)N2C[C@H](Cc3ccc(O)cc3)N(CC3CCCCCC3)C2=S)cc1 (stereo not given in full)	> 25 µM (inactive)	> 25	> 25	8.6 µM	7.31	9.89
Cc1ccc2[nH]c(-c3ccccc3)cc(=O)c2c1	> 25 µM (inactive)	> 25	> 25	> 25 µM (inactive)	> 25	> 25
COc1cc(NC(=O)c2ccco2)c(OC)cc1NC(=O)CCC(=O)Nc1cccc(C)c1C	> 25 µM (inactive)	> 25	> 25	–	> 25	22.3
CC(C)(C)NC(=O)C(c1ccc(-c2ccccc2)cc1)N(C[C@H]1CC[C@@H]([C@@H]2CC[C@H](CO)O2)O1)C(=O)c1ccc2ccccc2c1 (stereo not given in full)	> 25 µM (inactive)	> 25	> 25	5.56 µM	4.96	6.16
Cc1cc(N2CCN(Cc3cn(C)nc3-c3cccc(Cl)c3)CC2)cc(C)n1	> 25 µM (inactive)	> 25	> 25	–	> 25	22.5
